Test results taken from publication PMC8044163, “Vitamin D and lumisterol derivatives can act on liver X receptors (LXRs)” (Scientific Reports, 2021).

Test system: murine dermal fibroblasts
Test: RNA-Seq of newborn murine dermal fibroblasts
Format: cell-based, mouse
Conditions: 10^−7 M, 24 h
Protocol: All animal studies followed guidelines outlined by the NIH Guide for the Care and Use of Laboratory Animals and protocols were approved by the Institutional Animal Care and Use Committee at the NIEHS or the UAB. […] Skin samples from newborn C57BL/6 mice were collected at the NIEHS. Dermal fibroblasts were isolated from the skin of newborn mice, 1–2 day old. Briefly, we followed the protocols described previously. The skin was washed in PBS, cut into smaller pieces and incubated in 2.4 U/ml of dispase II (Roche) overnight at 4 °C. The dermis was separated from the epidermis and incubated in 0.1% collagenase (Roche) at 4 °C overnight. […] Single cell suspension was prepared by pipetting and draining through a cell strainer. After centrifugation, cell pellets were suspended in DMEM medium containing 10% charcoal-stripped fetal bovine serum (cFBS), mouse fibroblasts growth factor (FGF) and 1% antibiotic, and inoculated into tissue culture dishes (Midwest Scientific, TPP). Cells, in early passages, from different mice were pooled together to provide representative samples for experiments. Fibroblasts were cultured in Petri dishes (10 cm in diameter) in DMEM and 10% cFBS and triplicate semi-confluent cultures were treated as described.
Triplicate cultures of murine fibroblasts were used for RNA isolation (RNAeasy Micro kit, Qiagen), the RNA samples were combined for each condition and at least 200 ng of RNA for each sample was used to create libraries for RNA sequencing by BGI Americas Corporation Service (Cambridge, MA)[67]. Quality of RNA and its concentration were determined using Agilent 2100.
The raw sequence FASTQ files were aligned to Gencode’s GRCm38 p4 Release M11 genome using STAR version 2.5.4b (parameters used: –outReadsUnmapped Fastx; –outSAMtype BAM SortedByCoordinate; –outSAMattributes All; –outFilterIntronMotifs RemoveNoncanonicalUnannotated)[69]. The abundance of transcripts was calculated from the alignments using Cufflinks version 2.2.1 (parameters used: –G; –L; –library-type fr-firststrand). Samples were merged using default parameters with Cuffmerge[70],[71]. The differential expression was calculated using Cuffdiff’s default parameters. The raw data have been deposited at the NCBI GEO (GSE145818).

C=C1C(=CC=C2CCCC3(C)C2CCC3C(C)(O)CC(O)CC(C)C)CC(O)CC1O (stereo not shown) [1,20,23(OH)3D3]
Adh7 expression level: 1.313
Adh7 log2(fold_change) vs control: 2.36
Aqp11 expression level: 0.9394
Aqp11 log2(fold_change) vs control: 2.077
Arid3b expression level: 0.6082
Arid3b log2(fold_change) vs control: -2.478
Bicd1 expression level: 0.7058
Bicd1 log2(fold_change) vs control: -1.592
Btc expression level: 1.117
Btc log2(fold_change) vs control: 2.211
Car9 expression level: 2.818
Car9 log2(fold_change) vs control: -1.732
Cbs expression level: 0.2989
Cbs log2(fold_change) vs control: -2.697
Ccl4 expression level: 0.3377
Ccl4 log2(fold_change) vs control: -1.322
Cd68 expression level: 3.541
Cd68 log2(fold_change) vs control: 1.639
Cd200 expression level: 0.5777
Cd200 log2(fold_change) vs control: -1.286
Cherp expression level: 32.7784
Cherp log2(fold_change) vs control: -2.489
Clec2g expression level: 0
Clec2g log2(fold_change) vs control: -inf
Cnnm4 expression level: 4.2236
Cnnm4 log2(fold_change) vs control: -3.566
Cox15 expression level: 15.6597
Cox15 log2(fold_change) vs control: 1.429
Cpa2 expression level: 0.3128
Cpa2 log2(fold_change) vs control: -2.322
Ctrl expression level: 0.34
Ctrl log2(fold_change) vs control: -1.578
Dcun1d1 expression level: 4.162
Dcun1d1 log2(fold_change) vs control: -1.661
Defb42 expression level: 0.2203
Defb42 log2(fold_change) vs control: -2.046
Dtx1 expression level: 0.142
Dtx1 log2(fold_change) vs control: -3.544
Ehf expression level: 0.2985
Ehf log2(fold_change) vs control: -1.4739
Ercc2 expression level: 13.9366
Ercc2 log2(fold_change) vs control: -3.6
Erh expression level: 2.618
Erh log2(fold_change) vs control: -1.258
Fmnl1 expression level: 0.2192
Fmnl1 log2(fold_change) vs control: -2.084
Gys2 expression level: 0
Gys2 log2(fold_change) vs control: -inf
Hist1h2ab expression level: 1.43
Hist1h2ab log2(fold_change) vs control: 2.322
Hist1h2bg expression level: 0
Hist1h2bg log2(fold_change) vs control: -inf
Hist1h2bh expression level: 0
Hist1h2bh log2(fold_change) vs control: -inf
Hist1h4c expression level: 0.4025
Hist1h4c log2(fold_change) vs control: -1
Isl1 expression level: 0.3246
Isl1 log2(fold_change) vs control: -1.301
Krt19 expression level: 10.3867
Krt19 log2(fold_change) vs control: 1.043
Larp1b expression level: 6.304
Lhx6 expression level: 2.879
Lhx6 log2(fold_change) vs control: -2.012
Lsm5 expression level: 1.269
Lsm5 log2(fold_change) vs control: -1.065
M1ap expression level: 2.14
M1ap log2(fold_change) vs control: 1.796
Med9os expression level: 0.7829
Med9os log2(fold_change) vs control: -1.4
Nckipsd expression level: 23.2533
Nckipsd log2(fold_change) vs control: 2.486
Nr3c2 expression level: 0.0668
Nr3c2 log2(fold_change) vs control: -4.037
Nr6a1 expression level: 0.2068
Nr6a1 log2(fold_change) vs control: -3.152
Ntrk3 expression level: 0.4025
Ntrk3 log2(fold_change) vs control: -2.2019
Parvg expression level: 0.1595
Parvg log2(fold_change) vs control: -3.209
Pde4dip expression level: 24.1833
Pde4dip log2(fold_change) vs control: -7.338
Psd4 expression level: 0.1018
Psd4 log2(fold_change) vs control: -3.94
Ptpa expression level: 214.561
Ptpa log2(fold_change) vs control: 1.701
Ptpn6 expression level: 3.903
Ptpn6 log2(fold_change) vs control: -1.613
Rnu3a expression level: 0
Rnu3a log2(fold_change) vs control: -inf
Rpph1 expression level: 0.6553
Rpph1 log2(fold_change) vs control: -1
Rsad1 expression level: 1.419
Rsad1 log2(fold_change) vs control: -1.14
Saa1 expression level: 0.1901
Saa1 log2(fold_change) vs control: -2.322
Samd12 expression level: 0.2728
Samd12 log2(fold_change) vs control: -3.717
Scn8a expression level: 0.1998
Scn8a log2(fold_change) vs control: -2
Sgca expression level: 0.5689
Sgca log2(fold_change) vs control: -1.112
Slc15a4 expression level: 13.3996
Slc15a4 log2(fold_change) vs control: -2.086
Slc16a5 expression level: 0.07215
Slc16a5 log2(fold_change) vs control: -3.671
Snhg9 expression level: 3.722
Snhg9 log2(fold_change) vs control: -2.322
St7 expression level: 24.6198
St7 log2(fold_change) vs control: -1.48
Stmn1 expression level: 5.272
Stmn1 log2(fold_change) vs control: 1.77
Susd1 expression level: 2.296
Susd1 log2(fold_change) vs control: 1.732
Syt8 expression level: 0.5148
Syt8 log2(fold_change) vs control: -2.627
Syt12 expression level: 0.9828
Syt12 log2(fold_change) vs control: -2.055
Tldc2 expression level: 0
Tldc2 log2(fold_change) vs control: -inf
Tnnc2 expression level: 0.3105
Tnnc2 log2(fold_change) vs control: -1.361
Unc5c expression level: 0.4569
Unc5c log2(fold_change) vs control: -1.248
Wdr17 expression level: 0.2366
Wdr17 log2(fold_change) vs control: -3.241
Zbtb18 expression level: 4.229
Zbtb18 log2(fold_change) vs control: -3.388
Zfp618 expression level: 1.3488
Zfp618 log2(fold_change) vs control: -1.817
number of genes downregulated, FC ≥ 2: 520
number of genes upregulated, FC ≥ 2: 531
number of genes solely downregulated (FC ≥ 2): 113 (10.7%)
number of genes solely upregulated (FC ≥ 2): 256 (17%)
